# Counter-ions that a name gives are not always drawn. Calls of active or inactive are those of the source.
# Tests used:
# Cytochrome P450 2C19 = Cytochrome P450 2C19 (Homo sapiens, UniProt P33261); test: Cytochrome panel assay with activity outcomes. Panel member name: p450-cyp2c19 Compounds with AC50 equal or less than 10 uM are considered active; type: functional; settings: read-out: AC50
# Cytochrome P450 2D6 = Cytochrome P450 2D6 (Homo sapiens, UniProt P10635);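 note: CYP2D6 member of a cytochrome P450 panel assay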
# [1] = NIH-3T3 fibroblast cytotoxicity, dose response, cytotoxicity control, cell-based, fluorescence, Alamar Blue, secondary assay (AID 2327); type: functional;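 note: NIH-3T3 mouse fibroblasts cultured with fluconazole at 8 µg/mL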
# [2] = system: Streptococcus sp. 'group A'; test: Streptococcus pyogenes SK(-)GAS viability under kanamycin – luminescence, BacTiterGlo, confirmation, counter-screen for streptokinase expression inhibitor project, dose response (AID 1900); type: functional, organism-based
# Streptokinase A = molecular target: T1, Streptokinase A (Streptococcus pyogenes serotype M1, UniProt P10520); test: viability-normalized secreted streptokinase activity reduction – plasminogen activation absorbance, OD405, dose response (AID 1914); type: functional, Streptococcus pyogenes M1 GAS;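 note: secreted streptokinase activity via plasminogen activation per viability signal from cell pellet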
# T1 sequence (P10520 whole entry): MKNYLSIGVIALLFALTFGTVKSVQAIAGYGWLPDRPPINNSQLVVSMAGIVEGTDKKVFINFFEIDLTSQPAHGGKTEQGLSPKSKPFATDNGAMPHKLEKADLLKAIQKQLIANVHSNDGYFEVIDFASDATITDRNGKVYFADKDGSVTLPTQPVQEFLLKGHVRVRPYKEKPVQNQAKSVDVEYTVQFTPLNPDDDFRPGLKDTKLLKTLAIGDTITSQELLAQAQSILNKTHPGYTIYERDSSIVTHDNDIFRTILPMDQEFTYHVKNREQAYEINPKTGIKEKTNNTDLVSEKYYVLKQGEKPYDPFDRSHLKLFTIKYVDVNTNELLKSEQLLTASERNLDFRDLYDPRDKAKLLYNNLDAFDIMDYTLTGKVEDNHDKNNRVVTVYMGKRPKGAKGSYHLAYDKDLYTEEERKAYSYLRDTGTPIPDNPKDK
# [3] = fluconazole-exposed Candida albicans growth modulators – fluorescence, retest, confirmation (AID 2467); type: functional, cell-based
# Streptococcus = test: GAS UMAA2166 growth inhibition – luminescence, BacTiterGlo, counter-screen for streptokinase expression inhibitor project, dose response (AID 1915); type: functional, organism-based;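 note: potency for reduction of bacterial viability or growth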
# Cytochrome P450 3A4 = Cytochrome P450 3A4 (Homo sapiens, UniProt P08684);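 note: CYP3A4 tested as one member of a cytochrome P450 panel screen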
# Cytochrome P450 2C9 = Cytochrome P450 2C9 (Homo sapiens, UniProt P11712)
# [4] = molecular target: T2, RNA-binding protein pos-1 (Caenorhabditis elegans, UniProt G5EF15); test: disruptors of C. elegans POS-1 RNA interaction – biochemical, fluorescence polarization, dose response (AID 1964);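 note: purified POS-1 fused to maltose binding protein made in E. coli; potency of compounds blocking POS-1 binding to fluorescent RNA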
# T2 sequence (G5EF15 whole entry): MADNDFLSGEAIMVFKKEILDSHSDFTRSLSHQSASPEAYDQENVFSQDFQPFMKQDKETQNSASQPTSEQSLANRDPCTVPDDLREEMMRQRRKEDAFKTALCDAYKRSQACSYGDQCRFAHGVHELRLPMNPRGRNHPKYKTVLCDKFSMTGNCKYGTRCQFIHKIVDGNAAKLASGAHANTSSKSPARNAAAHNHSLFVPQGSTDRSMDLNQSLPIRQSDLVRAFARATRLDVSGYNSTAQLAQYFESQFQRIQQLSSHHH
# [5] = molecular target: T3, Zinc finger protein mex-5 (Caenorhabditis elegans, UniProt Q9XUB2); test: potency of MEX-5 RNA-binding blockers – biochemical, C. elegans, fluorescence polarization, dose response (AID 1960)
# T3 sequence (Q9XUB2 whole entry): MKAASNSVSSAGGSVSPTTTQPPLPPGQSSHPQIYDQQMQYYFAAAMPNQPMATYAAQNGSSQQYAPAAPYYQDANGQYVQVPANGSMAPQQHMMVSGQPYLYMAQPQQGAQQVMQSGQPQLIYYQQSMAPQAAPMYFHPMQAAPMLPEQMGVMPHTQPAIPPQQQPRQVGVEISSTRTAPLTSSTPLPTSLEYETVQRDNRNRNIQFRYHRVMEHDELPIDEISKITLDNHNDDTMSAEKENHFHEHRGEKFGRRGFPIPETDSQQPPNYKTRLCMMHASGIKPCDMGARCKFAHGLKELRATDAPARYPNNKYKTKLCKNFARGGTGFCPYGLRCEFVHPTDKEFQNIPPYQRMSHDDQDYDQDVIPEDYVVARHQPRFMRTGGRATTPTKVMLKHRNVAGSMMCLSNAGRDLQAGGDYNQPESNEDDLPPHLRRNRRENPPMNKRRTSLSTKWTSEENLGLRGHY
# [6] = molecular target: T4, Corticotropin-releasing factor receptor 2/Corticotropin-releasing factor-binding protein (Homo sapiens, UniProt P24387+Q13324); test: activators of CRF receptor 2 with binding protein – uHTS hits, confirmation (AID 602473); type: functional; settings: read-out: EC50_Mean
# T4 sequence (Q13324 whole entry): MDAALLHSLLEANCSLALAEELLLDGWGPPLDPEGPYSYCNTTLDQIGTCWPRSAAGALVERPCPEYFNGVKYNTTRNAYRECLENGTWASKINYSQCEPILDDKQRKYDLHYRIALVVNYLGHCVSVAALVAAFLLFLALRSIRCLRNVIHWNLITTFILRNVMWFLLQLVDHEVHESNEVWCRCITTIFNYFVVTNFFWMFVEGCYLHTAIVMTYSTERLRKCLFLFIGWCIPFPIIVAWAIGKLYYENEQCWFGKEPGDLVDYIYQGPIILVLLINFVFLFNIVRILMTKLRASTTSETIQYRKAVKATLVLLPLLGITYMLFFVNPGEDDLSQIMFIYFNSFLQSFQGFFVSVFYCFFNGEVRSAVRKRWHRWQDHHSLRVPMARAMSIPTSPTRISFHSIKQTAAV
# T4 sequence (P24387 whole entry): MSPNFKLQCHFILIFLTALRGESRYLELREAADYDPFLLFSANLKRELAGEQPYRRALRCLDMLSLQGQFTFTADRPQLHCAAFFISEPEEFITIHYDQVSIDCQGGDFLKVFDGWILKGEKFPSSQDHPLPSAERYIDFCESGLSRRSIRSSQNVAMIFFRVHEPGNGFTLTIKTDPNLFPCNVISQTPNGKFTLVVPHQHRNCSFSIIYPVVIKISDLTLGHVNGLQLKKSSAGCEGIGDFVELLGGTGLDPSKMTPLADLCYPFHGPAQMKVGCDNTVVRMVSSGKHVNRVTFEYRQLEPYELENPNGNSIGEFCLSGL
# [7] = luciferase reporter signal suppression in cells – H4 neuroglioma cells, luminescence, dose response (AID 1990); type: functional, cell-based
# [8] = alpha-synuclein stem-loop luciferase translation blockers – H4 neuroglioma cells, luminescence, confirmation (AID 1988); type: functional, cell-based
# Cytochrome P450 1A2 = molecular target: T5, Cytochrome P450 1A2 (Homo sapiens, UniProt P05177);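 note: PubChem cytochrome P450 panel assay, CYP1A2 panel member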
# T5 sequence (P05177 whole entry): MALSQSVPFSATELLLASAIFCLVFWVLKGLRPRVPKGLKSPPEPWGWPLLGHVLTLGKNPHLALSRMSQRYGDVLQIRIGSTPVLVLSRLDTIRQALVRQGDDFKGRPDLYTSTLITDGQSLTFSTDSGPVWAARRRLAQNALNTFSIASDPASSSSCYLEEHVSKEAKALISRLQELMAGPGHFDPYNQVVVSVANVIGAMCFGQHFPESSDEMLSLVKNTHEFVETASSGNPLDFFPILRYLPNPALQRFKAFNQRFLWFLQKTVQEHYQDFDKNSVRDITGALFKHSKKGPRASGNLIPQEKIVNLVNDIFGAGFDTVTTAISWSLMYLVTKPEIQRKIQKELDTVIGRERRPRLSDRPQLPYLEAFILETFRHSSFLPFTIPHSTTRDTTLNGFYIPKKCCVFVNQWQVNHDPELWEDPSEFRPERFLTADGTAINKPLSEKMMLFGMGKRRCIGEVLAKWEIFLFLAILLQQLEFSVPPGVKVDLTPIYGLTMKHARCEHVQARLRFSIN
# Sequence of Cytochrome P450 2C19 (P33261 whole entry): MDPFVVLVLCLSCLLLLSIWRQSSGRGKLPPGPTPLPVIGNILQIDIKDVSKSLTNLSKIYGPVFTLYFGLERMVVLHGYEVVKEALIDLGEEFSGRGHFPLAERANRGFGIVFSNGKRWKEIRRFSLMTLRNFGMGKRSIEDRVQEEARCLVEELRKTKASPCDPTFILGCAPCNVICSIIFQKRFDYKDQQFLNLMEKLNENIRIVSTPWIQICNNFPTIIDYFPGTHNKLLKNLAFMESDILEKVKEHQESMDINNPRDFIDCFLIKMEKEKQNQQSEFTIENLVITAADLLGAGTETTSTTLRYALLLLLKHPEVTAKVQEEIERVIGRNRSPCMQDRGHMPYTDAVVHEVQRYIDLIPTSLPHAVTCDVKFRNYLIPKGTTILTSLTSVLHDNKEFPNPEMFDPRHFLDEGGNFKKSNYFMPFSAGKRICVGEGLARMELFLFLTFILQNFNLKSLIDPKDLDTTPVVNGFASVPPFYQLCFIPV
# Sequence of Cytochrome P450 2D6 (P10635 whole entry): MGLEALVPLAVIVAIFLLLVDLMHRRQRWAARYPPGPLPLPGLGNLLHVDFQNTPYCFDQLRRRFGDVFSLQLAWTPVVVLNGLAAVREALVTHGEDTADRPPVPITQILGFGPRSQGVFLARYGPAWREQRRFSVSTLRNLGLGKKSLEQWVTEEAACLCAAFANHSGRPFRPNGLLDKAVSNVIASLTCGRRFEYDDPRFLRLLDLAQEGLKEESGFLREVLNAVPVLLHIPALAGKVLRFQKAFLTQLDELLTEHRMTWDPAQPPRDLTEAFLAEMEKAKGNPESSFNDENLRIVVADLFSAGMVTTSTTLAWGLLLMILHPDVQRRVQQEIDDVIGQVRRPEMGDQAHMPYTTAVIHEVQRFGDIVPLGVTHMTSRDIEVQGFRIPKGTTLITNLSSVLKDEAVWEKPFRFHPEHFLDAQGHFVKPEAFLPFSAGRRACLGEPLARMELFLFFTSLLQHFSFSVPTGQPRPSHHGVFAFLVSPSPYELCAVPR
# Sequence of Cytochrome P450 2C9 (P11712 whole entry, the tested form may be a part): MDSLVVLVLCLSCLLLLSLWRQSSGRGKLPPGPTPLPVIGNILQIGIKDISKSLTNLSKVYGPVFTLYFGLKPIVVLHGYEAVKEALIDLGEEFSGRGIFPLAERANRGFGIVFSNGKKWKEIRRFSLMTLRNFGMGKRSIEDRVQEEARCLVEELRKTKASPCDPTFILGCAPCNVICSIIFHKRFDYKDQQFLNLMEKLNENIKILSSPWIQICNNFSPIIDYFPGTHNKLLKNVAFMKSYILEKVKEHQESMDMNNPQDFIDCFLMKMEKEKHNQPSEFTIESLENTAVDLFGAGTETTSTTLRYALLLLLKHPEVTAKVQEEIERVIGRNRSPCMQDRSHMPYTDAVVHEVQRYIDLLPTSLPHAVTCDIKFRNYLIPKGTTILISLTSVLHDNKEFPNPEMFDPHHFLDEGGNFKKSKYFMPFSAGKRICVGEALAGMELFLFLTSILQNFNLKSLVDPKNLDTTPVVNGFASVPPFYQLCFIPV
# Sequence of Cytochrome P450 3A4 (P08684 whole entry): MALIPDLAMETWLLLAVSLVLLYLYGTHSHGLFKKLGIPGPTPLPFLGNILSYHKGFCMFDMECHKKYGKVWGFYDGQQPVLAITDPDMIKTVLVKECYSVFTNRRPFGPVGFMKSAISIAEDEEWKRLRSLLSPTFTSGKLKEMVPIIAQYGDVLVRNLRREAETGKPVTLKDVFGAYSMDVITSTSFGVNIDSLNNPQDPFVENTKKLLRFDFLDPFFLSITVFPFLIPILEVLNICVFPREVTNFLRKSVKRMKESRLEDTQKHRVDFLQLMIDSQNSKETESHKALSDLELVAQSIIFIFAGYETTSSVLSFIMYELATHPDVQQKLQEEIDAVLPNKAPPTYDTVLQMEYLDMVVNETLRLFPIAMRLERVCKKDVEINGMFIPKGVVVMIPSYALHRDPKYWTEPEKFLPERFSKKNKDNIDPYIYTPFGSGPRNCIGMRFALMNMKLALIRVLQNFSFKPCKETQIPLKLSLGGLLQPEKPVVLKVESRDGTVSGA
structure (smiles),measurement,setting,value
O=C(O)/C=C\C(=O)NCc1ccccc1,AC50,Cytochrome P450 2C19,0.0158 µM (inconclusive)
same,AC50,Cytochrome P450 2D6,0.794 µM (inconclusive)
CC(=O)NNC(=S)NC(=O)C(c1ccccc1)c1ccccc1,EC50,[1],> 150 µM (inactive)
same,EC50,[2],3.24 µM (active)
same,EC50,Streptokinase A,> 150 µM (not active)
same,EC50,[3],1.52 µM (active)
same,EC50,Streptococcus,10.4 µM (active)
COc1ccc(OC)c2nc(O)c(CCNS(=O)(=O)c3ccccc3)cc12,AC50,Cytochrome P450 2C19,3.16 µM (inconclusive)
same,AC50,Cytochrome P450 3A4,14.1 µM (inconclusive)
same,AC50,Cytochrome P450 2C9,14.1 µM (inconclusive)
COc1ccc(/N=C/c2c(O)c3ccccc3n2C(C)=O)cc1,EC50,[4],> 300 µM (inconclusive)
same,EC50,[5],> 300 µM (inconclusive)
same,EC50,[6],6.35 µM (active)
CCC/C=C(\CCC)C(NC(=O)c1ccc(C(=O)OC)cc1)c1ccc(C(=O)OC)cc1 (stereo unspecified),AC50,Cytochrome P450 2C19,10 µM (inconclusive)
same,AC50,Cytochrome P450 2D6,25.1 µM (inconclusive)
O=C(COC(=O)CC(c1ccccc1)c1ccccc1)NCc1ccc(Cl)cc1,EC50,[6],> 53 µM (inactive)
COc1cc(OC)c(/C=C2/C(=O)Nc3ccccc32)c(OC)c1,AC50,Cytochrome P450 2C19,31.6 µM (inconclusive)
Nc1ccn([C@@H]2O[C@H](CO)[C@@H](O)[C@@H]2O)c(=O)n1 [CYTARABINE HYDROCHLORIDE],EC50,[7],< 0.1 µM (active)
same,EC50,[8],< 0.1 µM (active)
CC(C)NS(=O)(=O)c1ccc(NC(=O)C(C)Oc2ccc(C(=O)c3ccccc3)cc2)cc1 (stereo unspecified),EC50,[6],4.6 µM (active)
CCCCNCCOCCSc1ccc(Cl)cc1,AC50,Cytochrome P450 2C19,17.8 µM (inconclusive)
same,AC50,Cytochrome P450 3A4,14.1 µM (inconclusive)
COc1cccc(Cn2c(=O)c(-c3ccccc3)nc3cnc(OC)nc32)c1,AC50,Cytochrome P450 2C19,39.8 µM (inconclusive)
same,AC50,Cytochrome P450 2D6,39.8 µM (inconclusive)
same,AC50,Cytochrome P450 1A2,15.8 µM (inconclusive)
CCN(CC)C(=O)CSc1nnc(C2CCCCC2)o1,AC50,Cytochrome P450 2C19,11.2 µM (inconclusive)
COc1ccc(CNCCNC(=O)c2ccco2)c(OC)c1OC,EC50,[1],> 160 µM (inactive)
same,EC50,[3],> 38 µM (not active)
Cc1ccc(C(=O)NC(=S)NNC(=O)c2cccc([N+](=O)[O-])c2)cc1,EC50,[2],1.53 µM (active)
same,EC50,Streptokinase A,> 150 µM (not active)
same,EC50,Streptococcus,21.7 µM (active)
same,EC50,[6],2.89 µM (active)
CC(C)(C)c1ccc(C(=O)NNc2ccc(F)cc2F)cc1,EC50,[1],32.2 µM (active)
same,EC50,[3],> 38 µM (not active)
CCCS(=O)(=O)N1CCCC(C(=O)NCC2CCCO2)C1 (stereo unspecified),AC50,Cytochrome P450 2C19,39.8 µM (inconclusive)
same,AC50,Cytochrome P450 2C9,8.91 µM (inconclusive)

# Source: ChEMBL document CHEMBL1201862, “PubChem BioAssay data set” (2004)
